Test system: healthy and CF primary human airway epithelial cultures
Test: SEM of cilia structure in healthy and CF primary human airway epithelial cultures
Assay type: cell-based
Procedure: Wholemount immunofluorescence and scanning electron microscopy of HNEC cultures. For wholemount immunofluorescence, HBECs were fixed in −20° C. methanol or 4% paraformaldehyde for 10 min as previously described (43). Transwell filters were cut out of the plastic supports and placed in a humidity chamber for staining. Samples were blocked in 10% normal horse serum and 0.1% Triton X-100 in PBS and incubated with primary antibodies for 1-2 h, then with Alexa dye conjugated secondary antibodies (Thermo Fisher) for 30 min at room temperature. Filters were mounted in Mowiol mounting medium containing 2% N-propyl gallate (Sigma). Samples were imaged with a Leica SP8 confocal microscope. For antibodies and fixation conditions, see Table 2. For SEM, Transwell filters were fixed in 2% glutaraldehyde, 4% paraformaldehyde in 0.1 M NaCacodylate buffer, pH 7.4 at 4° C. overnight. Samples were osmicated, dehydrated, dried with a Tousimis Autosamdri-815 critical point dryer. Samples were mounted luminal side up, sputter coated with 100 Å layer of Au/Pd. Images were acquired with a Hitachi S-3400N VP-SEM microscope operated at 10−15 kV, with a working distance of 7−10 mm and using secondary electron detection.

C[C@H](NC(=O)Cc1cc(F)cc(F)c1)C(=O)NC(C(=O)OC(C)(C)C)c1ccccc1 (stereo partly shown) [DAPT]
structure of multiciliated cells / cilia: indistinguishable from those in untreated healthy cultures

Reference: patent publication US20260183306A1, “Methods for Treating Respiratory Diseases Characterized by Mucus Hypersecretion” (The Board of Trustees of the Leland Stanford Junior …, priority 2022, published 2026)
